System: Candida krusoides ATCC 7345 enzyme capable of decomposing ethyl carbamate (partially purified crude enzyme of Example 5)
Assay: Km of the ethyl carbamate-decomposing enzyme (ammonia formation, nitroprusside method)
Assay type: biochemical
Settings: pH 4, 0.2M citrate buffer; substrate not given, taken as ethyl carbamate
Protocol: The activity of decomposing ethyl carbamate in the culture broth or its processed matter was determined colorimetrically by the nitroprusside method on ammonia produced by the reaction at 30° C. for 30 minutes of the mixture of a volume of a suspension of the cells in sterilized deionized water collected by centrifugation of the culture which had been diluted appropriately, […] The amount of enzyme to produce one micromole of ammonia per unit time (one minute) is expressed as 1 unit (1U). Candida krusoides ATCC 7345 was cultivated in the same manner as described in Example 1 to give 2 l of a culture broth having an activity of 0.007 U/ml for decomposing ethyl carbamate. The cells were collected from the culture broth by centrifugation, washed with 0.05M phosphate buffer (pH 7.2) twice, suspended in a solution containing 1 mM of EDTA and 1 mM of dithiothreitol, broken down by treating with a cell mill containing glass beads having 0.1-0.2 mm in diameter and were treated at 4500 rpm for 20 minutes The treated product was centrifuged and to the supernatant was added ammonium sulfate so that the concentration comes to 90%. […]

Compound: CCOC(N)=O [ethyl carbamate]
- Km: 65 mM

Reference: US5000966A, “Quality improvement of alcoholic liquors by enzymatic decomposing of ethyl carbamate” (Takeda Chemical Industries, Ltd., priority 1987, dated 1991)
